Reference: ChEMBL document CHEMBL1201862, “PubChem BioAssay data set” (2004)
The source made the active and inactive calls. Peptide text beside a SMILES is read from it. * marks the point of attachment. Cbz = O=C(OCc1ccccc1)*

Tests used:
[1] = target: T1, Polyadenylate-binding protein 1 (Homo sapiens, UniProt P11940); experiment: MLLE domain peptide-binding blockers, IC50 – biochemical, fluorescence polarization, FITC-PAM2 peptide, dose response (AID 602259); assay type: functional; conditions: read-out: IC50_Mean
T1 sequence (P11940 whole entry, the tested form may be a part): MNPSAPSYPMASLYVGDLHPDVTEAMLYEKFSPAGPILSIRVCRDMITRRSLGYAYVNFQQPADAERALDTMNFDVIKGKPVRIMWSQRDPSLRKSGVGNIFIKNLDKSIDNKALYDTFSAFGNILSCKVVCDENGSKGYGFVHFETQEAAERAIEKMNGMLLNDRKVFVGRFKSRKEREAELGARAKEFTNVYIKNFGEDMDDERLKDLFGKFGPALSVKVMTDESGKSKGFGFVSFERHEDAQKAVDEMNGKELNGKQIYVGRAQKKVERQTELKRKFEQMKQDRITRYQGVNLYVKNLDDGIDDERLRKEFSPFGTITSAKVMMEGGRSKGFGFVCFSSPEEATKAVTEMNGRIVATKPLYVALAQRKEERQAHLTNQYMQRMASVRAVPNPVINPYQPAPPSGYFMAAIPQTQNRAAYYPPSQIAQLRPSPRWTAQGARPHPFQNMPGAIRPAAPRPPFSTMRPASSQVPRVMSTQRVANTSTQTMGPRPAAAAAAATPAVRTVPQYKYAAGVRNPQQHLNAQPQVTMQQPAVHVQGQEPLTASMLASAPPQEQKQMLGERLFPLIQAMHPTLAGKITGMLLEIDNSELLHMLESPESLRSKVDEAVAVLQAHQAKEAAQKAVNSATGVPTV

[2] = target: T1, Polyadenylate-binding protein 1; experiment: MLLE binding blockers, Cy5 peptide tracer – biochemical, fluorescence polarization, Cy5-PAM2 peptide, secondary, miRNA deadenylation inhibitor project, dose response (AID 602260); assay type: functional; conditions: read-out: IC50_Mean
Cytochrome P450 1A2 = target: T2, Cytochrome P450 1A2 (Homo sapiens, UniProt P05177);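 note: PubChem cytochrome P450 panel assay, CYP1A2 panel member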
T2 sequence (P05177 whole entry): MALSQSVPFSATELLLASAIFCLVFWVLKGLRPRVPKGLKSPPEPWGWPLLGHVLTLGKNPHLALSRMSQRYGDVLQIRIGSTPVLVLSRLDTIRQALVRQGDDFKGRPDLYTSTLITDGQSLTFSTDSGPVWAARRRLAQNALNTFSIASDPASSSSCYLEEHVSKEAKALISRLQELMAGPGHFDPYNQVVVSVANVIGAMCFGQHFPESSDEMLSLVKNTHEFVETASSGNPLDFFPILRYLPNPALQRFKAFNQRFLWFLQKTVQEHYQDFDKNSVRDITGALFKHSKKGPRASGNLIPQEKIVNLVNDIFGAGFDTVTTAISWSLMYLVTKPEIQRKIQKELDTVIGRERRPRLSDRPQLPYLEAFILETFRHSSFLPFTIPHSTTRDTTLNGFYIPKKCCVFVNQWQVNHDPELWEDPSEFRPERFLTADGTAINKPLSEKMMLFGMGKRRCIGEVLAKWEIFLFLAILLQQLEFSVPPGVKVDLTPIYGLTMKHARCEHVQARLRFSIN

Cytochrome P450 2C9 = Cytochrome P450 2C9 (Homo sapiens, UniProt P11712)
Chain of Cytochrome P450 2C9 (P11712 whole entry): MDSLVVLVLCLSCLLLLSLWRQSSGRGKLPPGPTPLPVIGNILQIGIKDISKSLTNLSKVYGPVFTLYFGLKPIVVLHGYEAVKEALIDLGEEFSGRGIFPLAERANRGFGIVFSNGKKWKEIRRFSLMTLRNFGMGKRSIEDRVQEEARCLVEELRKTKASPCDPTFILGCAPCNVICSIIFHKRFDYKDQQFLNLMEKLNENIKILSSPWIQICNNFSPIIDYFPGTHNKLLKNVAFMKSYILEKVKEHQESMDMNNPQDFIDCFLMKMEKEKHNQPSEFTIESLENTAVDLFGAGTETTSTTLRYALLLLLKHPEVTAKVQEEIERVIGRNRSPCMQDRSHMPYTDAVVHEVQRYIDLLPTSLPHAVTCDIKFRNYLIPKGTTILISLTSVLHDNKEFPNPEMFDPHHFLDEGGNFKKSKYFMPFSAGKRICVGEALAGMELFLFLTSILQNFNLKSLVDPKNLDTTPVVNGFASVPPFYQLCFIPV

Cytochrome P450 2C19 = Cytochrome P450 2C19 (Homo sapiens, UniProt P33261); experiment: Cytochrome panel assay with activity outcomes. Panel member name: p450-cyp2c19 Compounds with AC50 equal or less than 10 uM are considered active; assay type: functional; conditions: read-out: AC50
Chain of Cytochrome P450 2C19 (P33261 whole entry): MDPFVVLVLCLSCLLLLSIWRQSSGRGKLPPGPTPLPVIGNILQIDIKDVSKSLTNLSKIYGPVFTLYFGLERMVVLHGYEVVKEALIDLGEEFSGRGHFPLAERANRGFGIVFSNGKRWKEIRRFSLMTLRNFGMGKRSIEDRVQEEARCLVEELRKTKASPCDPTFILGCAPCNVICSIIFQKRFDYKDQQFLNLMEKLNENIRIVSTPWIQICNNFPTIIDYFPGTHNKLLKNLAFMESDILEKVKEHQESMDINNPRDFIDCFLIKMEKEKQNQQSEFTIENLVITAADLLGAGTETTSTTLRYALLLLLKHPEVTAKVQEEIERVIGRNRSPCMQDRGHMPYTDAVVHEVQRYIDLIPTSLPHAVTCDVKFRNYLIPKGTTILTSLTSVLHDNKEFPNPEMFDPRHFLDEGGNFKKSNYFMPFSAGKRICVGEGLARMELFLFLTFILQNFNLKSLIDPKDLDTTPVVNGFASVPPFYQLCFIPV

Cytochrome P450 2D6 = Cytochrome P450 2D6 (Homo sapiens, UniProt P10635);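 note: CYP2D6 member of a cytochrome P450 panel assay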
Chain of Cytochrome P450 2D6 (P10635 whole entry): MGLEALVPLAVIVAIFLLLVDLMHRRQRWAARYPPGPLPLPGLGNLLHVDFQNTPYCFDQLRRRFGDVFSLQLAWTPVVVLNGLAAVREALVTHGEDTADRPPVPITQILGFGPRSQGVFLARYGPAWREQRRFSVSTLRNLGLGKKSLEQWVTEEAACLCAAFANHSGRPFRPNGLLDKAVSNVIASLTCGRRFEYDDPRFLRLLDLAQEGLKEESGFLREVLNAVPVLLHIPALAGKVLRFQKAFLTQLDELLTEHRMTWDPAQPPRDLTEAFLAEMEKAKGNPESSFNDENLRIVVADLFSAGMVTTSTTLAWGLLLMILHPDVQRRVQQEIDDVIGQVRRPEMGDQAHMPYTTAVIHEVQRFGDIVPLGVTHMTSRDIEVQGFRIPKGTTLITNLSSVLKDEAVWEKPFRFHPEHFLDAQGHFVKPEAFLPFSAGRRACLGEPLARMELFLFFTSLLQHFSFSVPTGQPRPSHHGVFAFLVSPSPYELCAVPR

[3] = target: T3, Replicative DNA helicase DnaB (Mycobacterium tuberculosis, UniProt P9WMR3); experiment: DnaB intein splicing inhibitors, dose response, biochemical, cell-free fluorescence (AID 449749); assay type: functional
T3 sequence (P9WMR3 whole entry): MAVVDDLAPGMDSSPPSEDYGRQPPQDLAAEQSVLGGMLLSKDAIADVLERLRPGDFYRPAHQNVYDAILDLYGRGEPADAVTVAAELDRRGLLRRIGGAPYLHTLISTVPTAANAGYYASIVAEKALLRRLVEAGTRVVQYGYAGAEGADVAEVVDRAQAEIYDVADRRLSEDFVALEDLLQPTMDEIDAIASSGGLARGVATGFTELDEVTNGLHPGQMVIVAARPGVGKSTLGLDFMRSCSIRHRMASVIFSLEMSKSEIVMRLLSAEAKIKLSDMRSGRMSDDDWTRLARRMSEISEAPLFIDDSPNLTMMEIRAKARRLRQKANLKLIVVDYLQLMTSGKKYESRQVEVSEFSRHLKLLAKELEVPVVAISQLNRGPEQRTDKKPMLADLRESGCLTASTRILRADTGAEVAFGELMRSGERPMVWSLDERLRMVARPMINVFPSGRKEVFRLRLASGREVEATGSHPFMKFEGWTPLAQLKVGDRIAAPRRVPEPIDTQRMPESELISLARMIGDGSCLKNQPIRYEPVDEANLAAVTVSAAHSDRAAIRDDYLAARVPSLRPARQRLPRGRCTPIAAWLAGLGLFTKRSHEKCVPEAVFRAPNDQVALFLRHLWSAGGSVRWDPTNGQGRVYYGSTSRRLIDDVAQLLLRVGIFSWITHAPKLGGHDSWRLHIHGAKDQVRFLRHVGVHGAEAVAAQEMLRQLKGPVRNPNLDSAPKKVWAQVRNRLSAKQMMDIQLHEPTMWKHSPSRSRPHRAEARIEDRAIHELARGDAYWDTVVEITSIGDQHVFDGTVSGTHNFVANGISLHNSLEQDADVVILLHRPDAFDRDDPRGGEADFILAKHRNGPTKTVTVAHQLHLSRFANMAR

Protein RecA = target: T4, Protein RecA (Mycobacterium tuberculosis, UniProt P9WHJ3); experiment: Fluorescence Cell-Free Homogeneous Dose Retest to Identify Inhibitors of RecA-Intein Splicing Activity. [Related pubchem assays (depositor defined):AID2097, AID2223, AID489010, AID492950]; assay type: functional
T4 sequence (P9WHJ3 whole entry): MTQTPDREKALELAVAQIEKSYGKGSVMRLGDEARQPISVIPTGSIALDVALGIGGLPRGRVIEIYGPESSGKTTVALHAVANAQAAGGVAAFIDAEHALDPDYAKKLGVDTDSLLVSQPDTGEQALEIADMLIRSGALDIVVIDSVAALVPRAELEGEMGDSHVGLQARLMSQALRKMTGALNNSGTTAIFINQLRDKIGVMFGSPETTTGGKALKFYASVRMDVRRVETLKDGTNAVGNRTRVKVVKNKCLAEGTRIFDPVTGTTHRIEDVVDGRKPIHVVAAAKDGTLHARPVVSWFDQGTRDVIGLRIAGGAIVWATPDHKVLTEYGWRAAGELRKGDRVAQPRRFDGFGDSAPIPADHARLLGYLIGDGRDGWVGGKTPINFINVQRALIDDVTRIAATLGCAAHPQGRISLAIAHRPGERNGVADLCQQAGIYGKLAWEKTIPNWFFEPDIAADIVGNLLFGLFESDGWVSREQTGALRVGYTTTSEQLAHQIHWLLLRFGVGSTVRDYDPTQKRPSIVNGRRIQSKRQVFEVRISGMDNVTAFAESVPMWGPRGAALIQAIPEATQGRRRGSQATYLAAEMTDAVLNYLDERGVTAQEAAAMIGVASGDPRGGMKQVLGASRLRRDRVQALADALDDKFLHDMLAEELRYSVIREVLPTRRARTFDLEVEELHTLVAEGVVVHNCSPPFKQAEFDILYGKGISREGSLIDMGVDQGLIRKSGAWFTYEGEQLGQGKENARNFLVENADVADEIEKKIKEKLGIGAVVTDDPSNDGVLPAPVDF

Cytochrome P450 3A4 = Cytochrome P450 3A4 (Homo sapiens, UniProt P08684);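 note: CYP3A4 tested as one member of a cytochrome P450 panel screen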
Chain of Cytochrome P450 3A4 (P08684 whole entry): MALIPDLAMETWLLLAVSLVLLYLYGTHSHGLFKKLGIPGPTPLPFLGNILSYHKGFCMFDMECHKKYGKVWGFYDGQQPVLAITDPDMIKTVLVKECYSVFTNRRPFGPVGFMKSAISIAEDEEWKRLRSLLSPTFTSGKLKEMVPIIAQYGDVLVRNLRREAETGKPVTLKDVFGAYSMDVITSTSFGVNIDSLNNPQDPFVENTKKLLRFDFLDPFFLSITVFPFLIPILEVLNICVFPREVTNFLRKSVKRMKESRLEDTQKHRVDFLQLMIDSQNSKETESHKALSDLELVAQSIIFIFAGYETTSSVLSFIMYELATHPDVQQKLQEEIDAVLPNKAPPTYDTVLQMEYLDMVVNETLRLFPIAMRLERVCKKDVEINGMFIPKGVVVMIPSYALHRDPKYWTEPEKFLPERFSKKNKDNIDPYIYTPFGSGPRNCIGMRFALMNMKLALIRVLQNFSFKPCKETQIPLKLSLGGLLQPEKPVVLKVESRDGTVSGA

## Cc1ccc(S(=O)(=O)CCSc2cccc(C(=O)O)c2)cc1
[1]
  IC50: > 66 µM (inactive)
[2]
  IC50: > 66 µM (inactive)

## N[C@@H](Cc1cc(-c2ccc(Cl)cc2Cl)cc(CP(=O)(O)O)c1O)C(=O)O
Cytochrome P450 1A2
  AC50: 20 µM (inconclusive)
Cytochrome P450 2C9
  AC50: 20 µM (inconclusive)
Cytochrome P450 2C19
  AC50: 7.94 µM (inconclusive)

## O=C(O)c1nn(-c2ccccc2)ccc1=O
Cytochrome P450 2C9
  AC50: 0.398 µM (inconclusive)

## COc1cccc(-c2cncnc2NCc2ccccc2)c1
Cytochrome P450 2C9
  AC50: 0.158 µM (inconclusive)
Cytochrome P450 2D6
  AC50: 39.8 µM (inconclusive)

## O=C(NC(=S)Nc1cccc2cccnc12)c1ccccc1
[1]
  IC50: > 66 µM (inactive)
[2]
  IC50: > 66 µM (inactive)

## Cc1ccc(NC(=O)C(CC(C)C)NC(N)=O)cc1 (configuration not stated)
[3]
  AC50: > 380 µM (inactive)
Protein RecA
  EC50: > 380 µM (inactive)

## O=c1cnc2cnc(Oc3cccc(Cl)c3)nc2n1Cc1ccc(F)cc1
Cytochrome P450 3A4
  AC50: 25.1 µM (inconclusive)

## CC[C@]1(c2ncc[nH]2)Cc2ccccc2O1
Cytochrome P450 2C9
  AC50: 25.1 µM (inconclusive)
Cytochrome P450 2D6
  AC50: 10 µM (inconclusive)

## O=C1C(Cl)=C(N2CCOCC2)C(=O)N1c1ccccc1F
[3]
  AC50: 10.8 µM (active)
Protein RecA
  EC50: 2.47 µM (active)

## Cc1cc(C)n2nc(SCc3cc(=O)oc4ccc5ccccc5c34)nc2n1
[1]
  IC50: > 66 µM (inactive)
[2]
  IC50: > 66 µM (inactive)

## C/C(=N/NC(=O)Cc1cc(O)[nH]n1)c1ccc([N+](=O)[O-])cc1
[3]
  AC50: 2.51 µM (active)
Protein RecA
  EC50: 1.38 µM (active)

## Cc1nn(CC(=O)NCc2ccccc2Cl)c(C)c1[N+](=O)[O-]
Cytochrome P450 1A2
  AC50: 12.6 µM (inconclusive)
Cytochrome P450 2C9
  AC50: 12.6 µM (inconclusive)
Cytochrome P450 3A4
  AC50: 14.1 µM (inconclusive)
Cytochrome P450 2D6
  AC50: 25.1 µM (inconclusive)

## O=C(CCc1nc(-c2ccccc2)c(-c2ccccc2)o1)OCc1ccc(Cl)cc1
Cytochrome P450 3A4
  AC50: 35.5 µM (inconclusive)

## O=C(CN1C(=O)/C(=C/c2ccccc2Cl)SC1=S)NC1CCS(=O)(=O)C1 (configuration not stated)
[1]
  IC50: > 66 µM (inactive)
[2]
  IC50: > 66 µM (inactive)

## O=C(N/C(=C\c1cccs1)C(=O)N1CCCCCC1)c1ccccc1
Cytochrome P450 2C9
  AC50: 31.6 µM (inconclusive)
Cytochrome P450 2C19
  AC50: 5.01 µM (inconclusive)

## CCCN(CCC)C(=O)Cc1c(-c2ccc(Cl)cc2)nc2c(Cl)cc(Cl)cn12 [ALPDEM]
Cytochrome P450 3A4
  AC50: 0.794 µM (inconclusive)

## CCC1NC(=S)N(C2CCCCC2)C1=O (configuration not stated)
Cytochrome P450 2C9
  AC50: 15.8 µM (inconclusive)
Cytochrome P450 2C19
  AC50: 5.01 µM (inconclusive)

## C=O.C[C@@H]1Cc2ccccc2N1NC(=O)c1ccc(Cl)c([S+](N)[O-])c1 (some centres not stated)
Cytochrome P450 3A4
  AC50: 5.01 µM (inconclusive)

## COc1ccccc1CNc1nc(-c2c(C)noc2C)nc2ccccc12
Cytochrome P450 2C9
  AC50: 1 µM (inconclusive)
Cytochrome P450 2C19
  AC50: 1.58 µM (inconclusive)
Cytochrome P450 2D6
  AC50: 7.94 µM (inconclusive)

## CCOC(=O)C(CC)Sc1ncnc2c1nnn2-c1ccc(F)cc1 (configuration not stated)
[3]
  AC50: 0.908 µM (active)
Protein RecA
  EC50: 26.7 µM (active)

## Cc1nc2ccccc2c2c1C(=O)NC2=O
[3]
  AC50: 76.5 µM (active)
Protein RecA
  EC50: 3.72 µM (active)

## CCCCn1[nH]c(-c2ccccc2)cc1=O
[3]
  AC50: 2.96 µM (active)
Protein RecA
  EC50: 1.05 µM (active)

## CC(=O)Nc1ccc(SCC(=O)NC(=O)c2ccc(S(=O)(=O)N(C)C)cc2)cc1
[1]
  IC50: > 66 µM (inactive)
[2]
  IC50: > 66 µM (inactive)

## COc1cc(Cc2nccc3cc(OC)c(OC)cc23)c(S(=O)(=O)O)cc1OC
[3]
  AC50: 161 µM (active)
Protein RecA
  EC50: 85.7 µM (active)

## C[C@@H](C(=O)O)/C(=C/c1ccc2c(c1)OCO2)C(=O)O
Cytochrome P450 1A2
  AC50: 0.316 µM (inconclusive)
Cytochrome P450 3A4
  AC50: 6.31 µM (inconclusive)

## Cc1ccc(OCC(=O)Nc2ccccc2-c2ccccc2)cc1
Cytochrome P450 2C9
  AC50: 11.2 µM (inconclusive)

## CC1Nc2ncnc(N3CCc4ccccc4C3)c2N(Cc2ccc(Br)cc2)C1=O (configuration not stated)
[3]
  AC50: > 380 µM (inactive)
Protein RecA
  EC50: 23.7 µM (active)

## COc1ccc(-c2nc3cnc(Oc4ccccc4)nc3n(C3CC3)c2=O)cc1
Cytochrome P450 3A4
  AC50: 15.8 µM (inconclusive)

## CCc1noc(C)c1C(=O)N1CCN(S(=O)(=O)c2ccccc2C(F)(F)F)CC1
[1]
  IC50: > 66 µM (inactive)
[2]
  IC50: > 66 µM (inactive)

## C/C(=N\NC(=O)c1cccc(Cl)c1)c1cccc(NC(=O)C(C)C)c1
Cytochrome P450 3A4
  AC50: 15.8 µM (inconclusive)
Cytochrome P450 2D6
  AC50: 28.2 µM (inconclusive)

## Cn1cc(-c2nc3cnc(N4CCOCC4)nc3n(CCC#N)c2=O)c2ccccc21
Cytochrome P450 3A4
  AC50: 15.8 µM (inconclusive)

## O=C(N/N=C/c1ccc(Cl)cc1)Nc1ccccc1
Cytochrome P450 2C9
  AC50: 25.1 µM (inconclusive)
Cytochrome P450 3A4
  AC50: 12.6 µM (inconclusive)

## COc1ccccc1C1CC(c2cccs2)=Nc2ccccc2S1 (configuration not stated)
[1]
  IC50: > 66 µM (inactive)
[2]
  IC50: > 66 µM (inactive)

## Cc1ccccc1-c1nc(C[S+]([O-])CC(=O)NCCN2CCN(Cc3ccccc3)CC2)c(C)o1 (configuration not stated)
Cytochrome P450 2C9
  AC50: 39.8 µM (inconclusive)

## O=S(=O)(NC(=S)NC1CCCCC1)c1ccccc1
[1]
  IC50: > 66 µM (inactive)
[2]
  IC50: > 66 µM (inactive)

## COc1ccc(-c2nc(C(=O)N3CCN(C)CC3)sc2-c2ccc(OC)cc2)cc1 [FR-122047]
Cytochrome P450 1A2
  AC50: 31.6 µM (inconclusive)
Cytochrome P450 2C9
  AC50: 20 µM (inconclusive)
Cytochrome P450 3A4
  AC50: 7.94 µM (inconclusive)

## O=C(COc1ccc(Br)cc1)NNC(=O)c1ccc(-n2cncn2)c([N+](=O)[O-])c1
[1]
  IC50: > 66 µM (inactive)
[2]
  IC50: > 66 µM (inactive)

## COC(=O)CCC(NC(=O)OCc1ccccc1)C(=O)NC(CC(C)C)C(=O)OC (configuration not stated) (Cbz-Glu(OMe)-Leu-OMe; configuration not given here)
Cytochrome P450 3A4
  AC50: 14.1 µM (inconclusive)

## Cc1n[nH]c(C)c1S(=O)(=O)N1CCOCC1
Cytochrome P450 2C9
  AC50: 17.8 µM (inconclusive)
